Measured values from paper PMC11284788, “NN1213 – A Potent, Long-Acting, and Selective Analog of Human Amylin” (Journal of Medicinal Chemistry, 2024).
Like-named read-outs stand apart in the source and are kept apart here. Numbered stars: 1 amine (or outer) side, 2 acyl side, 3 side chain; on linkers, the order of the positions; unused ones are H or OH. Bridge positions count the residues as written; N and C are the ends. Peptide text beside a SMILES is read from it. * marks the point of attachment. C20 diacid = O=C(O)CCCCCCCCCCCCCCCCCCC(=O)*; γGlu = O=C(O)[C@H](CCC(=O)[*:2])N[*:1]; AEEA = NCCOCCOCC(=O)O

Assays:
[1] = ThT assay: fibril formation propensity and peptide recovery; type: physicochemical; conditions: for ThT, pH 4.0 lag-time: 250 μM peptide, 10 mM glycylglycine pH 4.0, 1 μM ThT, 37 °C, 960 rpm, 45 h, lowest of four replicas, average of experiments; for recovery: pH 4.0, residual dissolved peptide after 45 h of shaking, centrifugation and 0.22 μm filtration, HPLC, relative to amount before stress
In short: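 Fibrillation lag time is read visually from ThT fluorescence-time curves (444/485 nm, 20-min reads, 45 h, 37 °C, 960 rpm shaking) of 250 μM peptide with 1 μM ThT at pH 4.0 or 7.5. The most conservative of four replicates is used. Peptide recovery is post-stress soluble peptide (HPLC, 215/276 nm) as fraction of initial.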

[2] = molecular target: T1, hAMY3R (Homo sapiens, UniProt O60896+P30988); assay: cAMP-responsive element luciferase reporter assay, human AMY3R; type: cell-based; parameters: expressed in transfected cells; conditions: for EC50: luciferase (human receptor assay); for ratio hCTR/hAMY3R: ratio of luciferase EC50 values
T1 sequence (P30988 25-474): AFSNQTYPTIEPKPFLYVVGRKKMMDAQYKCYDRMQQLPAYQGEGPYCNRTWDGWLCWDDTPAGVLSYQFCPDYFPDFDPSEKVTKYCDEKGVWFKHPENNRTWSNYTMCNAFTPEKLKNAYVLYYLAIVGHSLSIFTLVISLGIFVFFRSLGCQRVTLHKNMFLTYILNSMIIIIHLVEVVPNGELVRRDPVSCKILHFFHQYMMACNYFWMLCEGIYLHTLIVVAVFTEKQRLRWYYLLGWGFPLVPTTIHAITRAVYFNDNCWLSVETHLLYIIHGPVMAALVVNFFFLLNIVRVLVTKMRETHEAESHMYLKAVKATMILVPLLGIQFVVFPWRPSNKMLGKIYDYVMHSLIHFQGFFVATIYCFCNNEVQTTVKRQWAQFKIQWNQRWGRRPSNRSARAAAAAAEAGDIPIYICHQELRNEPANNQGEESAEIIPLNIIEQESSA
T1 sequence (O60896 24-148 partner): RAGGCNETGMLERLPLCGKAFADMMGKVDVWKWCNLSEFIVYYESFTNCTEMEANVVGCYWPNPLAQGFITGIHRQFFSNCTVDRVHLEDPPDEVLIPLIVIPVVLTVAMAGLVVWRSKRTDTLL

SMILES	ThT, pH 4.0 lag-time [1] [h]	recovery [1] [%]	EC50 ([2]; Tables S12 and S14, read-out: hAMY3R pEC50 (converted)) [nM]	EC50 ([2]; BHK cells stably expressing hCTR+RAMP3 and CRE-luciferase, 3 h, 37 °C, 10% FBS, read-out: hAMY3R EC50) [nM]	ratio hCTR/hAMY3R [2]
CC[C@H](C)[C@H](NC(=O)[C@H](C)NC(=O)CNC(=O)[C@H](Cc1ccccc1)NC(=O)[C@H](CC(N)=O)NC(=O)[C@@H]1CCCN1C(=O)[C@H](CO)NC(=O)[C@H](CO)NC(=O)[C@H](Cc1c[nH]cn1)NC(=O)[C@H](CCCNC(=N)N)NC(=O)[C@H](CC(C)C)NC(=O)[C@H](Cc1ccccc1)NC(=O)[C@H](CC(N)=O)NC(=O)[C@H](C)NC(=O)[C@H](CC(C)C)NC(=O)[C@H](CCCNC(=N)N)NC(=O)[C@H](CCC(N)=O)NC(=O)[C@@H](NC(=O)[C@H](C)NC(=O)[C@@H]1CSSC[C@H](NC(=O)[C@H](CCCCN)NC(=O)CC[C@H](NC(=O)CCCCCCCCCCCCCCCCCCC(=O)O)C(=O)O)C(=O)N[C@@H](CC(N)=O)C(=O)N[C@@H]([C@@H](C)O)C(=O)N[C@@H](C)C(=O)N[C@@H]([C@@H](C)O)C(=O)N1)[C@@H](C)O)C(=O)N1CCC[C@H]1C(=O)N[C@@H](CO)C(=O)N[C@@H](CO)C(=O)N[C@H](C(=O)N[C@@H](CC(N)=O)C(=O)N[C@H](C(=O)NCC(=O)N[C@@H](Cc1c[nH]cn1)C(=O)N[C@@H](CC(N)=O)C(=O)N[C@H](C(=O)N[C@@H](Cc1ccc(O)cc1)C(N)=O)[C@@H](C)O)C(C)C)[C@@H](C)O [Peptide 17]	26	92	0.151	0.151	17
CC[C@H](C)[C@H](NC(=O)[C@H](C)NC(=O)CNC(=O)[C@H](Cc1ccccc1)NC(=O)[C@H](CC(N)=O)NC(=O)[C@@H]1CCCN1C(=O)[C@H](CO)NC(=O)[C@H](CO)NC(=O)[C@H](Cc1c[nH]cn1)NC(=O)[C@H](CCCNC(=N)N)NC(=O)[C@H](CC(C)C)NC(=O)[C@H](Cc1ccccc1)NC(=O)[C@H](CC(N)=O)NC(=O)[C@H](C)NC(=O)[C@H](CC(C)C)NC(=O)[C@H](CCCNC(=N)N)NC(=O)[C@H](CCC(N)=O)NC(=O)[C@@H](NC(=O)[C@H](C)NC(=O)[C@@H]1CSSC[C@H](NC(=O)[C@H](CCCCN)NC(=O)COCCOCCNC(=O)CC[C@H](NC(=O)CCCCCCCCCCCCCCCCCCC(=O)O)C(=O)O)C(=O)N[C@@H](CC(N)=O)C(=O)N[C@@H]([C@@H](C)O)C(=O)N[C@@H](C)C(=O)N[C@@H]([C@@H](C)O)C(=O)N1)[C@@H](C)O)C(=O)N1CCC[C@H]1C(=O)N[C@@H](CO)C(=O)N[C@@H](CO)C(=O)N[C@H](C(=O)N[C@@H](CC(N)=O)C(=O)N[C@H](C(=O)NCC(=O)N[C@@H](CO)C(=O)N[C@@H](Cc1c[nH]cn1)C(=O)N[C@H](C(=O)N[C@@H](Cc1ccc(O)cc1)C(N)=O)[C@@H](C)O)C(C)C)[C@@H](C)O [Peptide 18] ({C20 diacid-γGlu-AEEA}-KCNTATCATQRLANFLRHSSPNFGAIPSSTNVGSHTY-NH2; disulfide 2-7; N-terminus assumed)	15	30			19
